What follows are compounds tested on ES3 (assay: cells). Settings: Homo sapiens, ES3.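 Note: growth inhibition of ES3 cells, read out with a cell viability assay.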
Assay type: functional, cell-based, Homo sapiens
Description: SANGER: Inhibition of human ES3 cell growth in a cell viability assay.

Compound | IC50
CC(C)c1ccccc1Cc1cc(C(=O)Nc2ccc(S(=O)(=O)c3ccccc3C(C)(C)C)cc2)c(O)c(O)c1O | 0.000359 mM
CN(C)C(=N)NC(=N)N [METFORMIN] | 16.9 mM

What follows are compounds tested on JVM-2 (assay: cells). Settings: Homo sapiens, JVM-2.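 Note: growth inhibition of JVM-2 cells determined by a cell viability assay.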
Assay type: functional, cell-based, Homo sapiens
Description: SANGER: Inhibition of human JVM-2 cell growth in a cell viability assay.

Compound | IC50
CN(C)C(=N)NC(=N)N [METFORMIN] | > 20 mM

What follows are compounds tested on MV4-11 (assay: cells). Settings: Homo sapiens, MV4-11.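 Note: cell viability readout measuring growth inhibition of human MV-4-11 cells.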
Assay type: functional, cell-based, Homo sapiens, MV-4-11
Description: SANGER: Inhibition of human MV-4-11 cell growth in a cell viability assay.

Compound | IC50
CN(C)C(=N)NC(=N)N [METFORMIN] | 8.43 mM

The compounds below were run on BV-173 (assay: cells). Settings: Homo sapiens, BV-173.
Assay type: functional, cell-based, Homo sapiens
Description: SANGER: Inhibition of human BV-173 cell growth in a cell viability assay.

Compound | IC50
CN(C)C(=N)NC(=N)N [METFORMIN] | 3.02 mM

Each compound was assayed on SH-4 (assay: cells). Settings: Homo sapiens, SH-4.
Assay type: functional, cell-based, Homo sapiens
Description: SANGER: Inhibition of human SH-4 cell growth in a cell viability assay.

Compound | IC50
CC(C)c1ccccc1Cc1cc(C(=O)Nc2ccc(S(=O)(=O)c3ccccc3C(C)(C)C)cc2)c(O)c(O)c1O | 0.227 µM
CN(C)C(=N)NC(=N)N [METFORMIN] | > 20000 µM

Each compound was assayed on MS-1 (assay: cells). Settings: Homo sapiens, MS-1.
Assay type: functional, cell-based, Homo sapiens
Description: SANGER: Inhibition of human MS-1 cell growth in a cell viability assay.

Compound | IC50
CN(C)C(=N)NC(=N)N [METFORMIN] | > 20 mM

The compounds below were run on MFM-223 (assay: cells). Settings: Homo sapiens, MFM-223.
Assay type: functional, cell-based, Homo sapiens
Description: SANGER: Inhibition of human MFM-223 cell growth in a cell viability assay.

Compound | IC50
CC(C)c1ccccc1Cc1cc(C(=O)Nc2ccc(S(=O)(=O)c3ccccc3C(C)(C)C)cc2)c(O)c(O)c1O | 0.847 µM
CN(C)C(=N)NC(=N)N [METFORMIN] | > 20000 µM

Each compound was assayed on HCC 2998 (assay: cells). Settings: Homo sapiens, HCC 2998.
Assay type: functional, cell-based, Homo sapiens
Description: SANGER: Inhibition of human HCC2998 cell growth in a cell viability assay.

Compound | IC50
CC(C)c1ccccc1Cc1cc(C(=O)Nc2ccc(S(=O)(=O)c3ccccc3C(C)(C)C)cc2)c(O)c(O)c1O | 5.89 µM
CN(C)C(=N)NC(=N)N [METFORMIN] | > 20000 µM

These compounds were tested on OMC-1 (assay: cells). Settings: Homo sapiens, OMC-1.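 Note: growth inhibition of the OMC-1 cell line, measured by a cell viability assay.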
Assay type: functional, cell-based, Homo sapiens
Description: SANGER: Inhibition of human OMC-1 cell growth in a cell viability assay.

Compound | IC50
CC(C)c1ccccc1Cc1cc(C(=O)Nc2ccc(S(=O)(=O)c3ccccc3C(C)(C)C)cc2)c(O)c(O)c1O | 0.000565 mM
CN(C)C(=N)NC(=N)N [METFORMIN] | 16.5 mM

These compounds were tested on LS-513 (assay: cells). Settings: Homo sapiens, LS-513.
Assay type: functional, cell-based, Homo sapiens
Description: SANGER: Inhibition of human LS-513 cell growth in a cell viability assay.

Compound | IC50
CC(C)c1ccccc1Cc1cc(C(=O)Nc2ccc(S(=O)(=O)c3ccccc3C(C)(C)C)cc2)c(O)c(O)c1O | 0.607 µM
CN(C)C(=N)NC(=N)N [METFORMIN] | > 20000 µM

What follows are compounds tested on ETK-1 (assay: cells). Settings: Homo sapiens, ETK-1.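 Note: growth inhibition of human ETK-1 cells, read out with a cell viability assay.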
Assay type: functional, cell-based, Homo sapiens
Description: SANGER: Inhibition of human ETK-1 cell growth in a cell viability assay.

Compound | IC50
CC(C)c1ccccc1Cc1cc(C(=O)Nc2ccc(S(=O)(=O)c3ccccc3C(C)(C)C)cc2)c(O)c(O)c1O | 0.000788 mM
CN(C)C(=N)NC(=N)N [METFORMIN] | 14.1 mM

These compounds were tested on NCI-H1355 (assay: cells). Settings: Homo sapiens, NCI-H1355.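 Note: growth inhibition of human NCI-H1355 cells, read out by a cell viability assay.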
Assay type: functional, cell-based, Homo sapiens
Description: SANGER: Inhibition of human NCI-H1355 cell growth in a cell viability assay.

Compound | IC50
CC(C)c1ccccc1Cc1cc(C(=O)Nc2ccc(S(=O)(=O)c3ccccc3C(C)(C)C)cc2)c(O)c(O)c1O | 1.29 µM
CN(C)C(=N)NC(=N)N [METFORMIN] | > 20000 µM

These compounds were tested on IST-SL1 (assay: cells). Settings: Homo sapiens, IST-SL1.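 Note: growth inhibition of human IST-SL1 cells, read out with a cell viability assay.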
Assay type: functional, cell-based, Homo sapiens
Description: SANGER: Inhibition of human IST-SL1 cell growth in a cell viability assay.

IC50 | Compound
438 nM | CC(C)c1ccccc1Cc1cc(C(=O)Nc2ccc(S(=O)(=O)c3ccccc3C(C)(C)C)cc2)c(O)c(O)c1O

The compounds below were run on RH-1 (assay: cells). Settings: Homo sapiens, RH-1.
Assay type: functional, cell-based, Homo sapiens
Description: SANGER: Inhibition of human RH-1 cell growth in a cell viability assay.

IC50 | Compound
158 nM | CC(C)c1ccccc1Cc1cc(C(=O)Nc2ccc(S(=O)(=O)c3ccccc3C(C)(C)C)cc2)c(O)c(O)c1O

The compounds below were run on LB2518-MEL (assay: cells). Settings: Homo sapiens, LB2518-MEL.
Assay type: functional, cell-based, Homo sapiens
Description: SANGER: Inhibition of human LB2518-MEL cell growth in a cell viability assay.

Compound | IC50
CC(C)c1ccccc1Cc1cc(C(=O)Nc2ccc(S(=O)(=O)c3ccccc3C(C)(C)C)cc2)c(O)c(O)c1O | 0.178 µM
CN(C)C(=N)NC(=N)N [METFORMIN] | > 20000 µM

Each compound was assayed on KGN (assay: cells). Settings: Homo sapiens, KGN.
Assay type: functional, cell-based, Homo sapiens
Description: SANGER: Inhibition of human KGN cell growth in a cell viability assay.

Compound | IC50
CC(C)c1ccccc1Cc1cc(C(=O)Nc2ccc(S(=O)(=O)c3ccccc3C(C)(C)C)cc2)c(O)c(O)c1O | 0.436 µM
CN(C)C(=N)NC(=N)N [METFORMIN] | > 20000 µM

What follows are compounds tested on KALS-1 (assay: cells). Settings: Homo sapiens, KALS-1.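 Note: growth inhibition of KALS-1 cells, determined with a cell viability assay.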
Assay type: functional, cell-based, Homo sapiens
Description: SANGER: Inhibition of human KALS-1 cell growth in a cell viability assay.

IC50 | Compound
253 nM | CC(C)c1ccccc1Cc1cc(C(=O)Nc2ccc(S(=O)(=O)c3ccccc3C(C)(C)C)cc2)c(O)c(O)c1O

The compounds below were run on NMC-G1 (assay: cells). Settings: Homo sapiens, NMC-G1.
Assay type: functional, cell-based, Homo sapiens
Description: SANGER: Inhibition of human NMC-G1 cell growth in a cell viability assay.

Compound | IC50
CC(C)c1ccccc1Cc1cc(C(=O)Nc2ccc(S(=O)(=O)c3ccccc3C(C)(C)C)cc2)c(O)c(O)c1O | 0.505 µM
CN(C)C(=N)NC(=N)N [METFORMIN] | > 20000 µM

These compounds were tested on SNU-C2B (assay: cells). Settings: Homo sapiens, SNU-C2B.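 Note: cell viability readout used to measure compound-driven suppression of SNU-C2B cell proliferation, IC50 marking half-maximal growth inhibition.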
Assay type: functional, cell-based, Homo sapiens
Description: SANGER: Inhibition of human SNU-C2B cell growth in a cell viability assay.

Compound | IC50
CC(C)c1ccccc1Cc1cc(C(=O)Nc2ccc(S(=O)(=O)c3ccccc3C(C)(C)C)cc2)c(O)c(O)c1O | 0.257 µM
CN(C)C(=N)NC(=N)N [METFORMIN] | > 20000 µM

The compounds below were run on EW-11 (assay: cells). Settings: Homo sapiens, EW-11.
Assay type: functional, cell-based, Homo sapiens
Description: SANGER: Inhibition of human EW-11 cell growth in a cell viability assay.

Compound | IC50
CC(C)c1ccccc1Cc1cc(C(=O)Nc2ccc(S(=O)(=O)c3ccccc3C(C)(C)C)cc2)c(O)c(O)c1O | 0.434 µM
CN(C)C(=N)NC(=N)N [METFORMIN] | > 20000 µM

What follows are compounds tested on NCI-N87 (assay: cells). Settings: Homo sapiens, NCI-N87.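 Note: growth inhibition of human NCI-N87 cells, read out with a cell viability assay.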
Assay type: functional, cell-based, Homo sapiens
Description: SANGER: Inhibition of human NCI-N87 cell growth in a cell viability assay.

Compound | IC50
CC(C)c1ccccc1Cc1cc(C(=O)Nc2ccc(S(=O)(=O)c3ccccc3C(C)(C)C)cc2)c(O)c(O)c1O | 2.2 µM
CN(C)C(=N)NC(=N)N [METFORMIN] | > 20000 µM

These compounds were tested on DMS-114 (assay: cells). Settings: Homo sapiens, DMS-114.
Assay type: functional, cell-based, Homo sapiens

Compound | IC50
CC(C)c1ccccc1Cc1cc(C(=O)Nc2ccc(S(=O)(=O)c3ccccc3C(C)(C)C)cc2)c(O)c(O)c1O | 0.0907 µM
CN(C)C(=N)NC(=N)N [METFORMIN] | > 20000 µM

These compounds were tested on SK-NEP-1 (assay: cells). Settings: Homo sapiens, SK-NEP-1.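 Note: growth inhibition of human SK-NEP-1 cells, read out by a cell viability assay.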
Assay type: functional, cell-based, Homo sapiens
Description: SANGER: Inhibition of human SK-NEP-1 cell growth in a cell viability assay.

Compound | IC50
CN(C)C(=N)NC(=N)N [METFORMIN] | 15 mM

What follows are compounds tested on C2BBe1 (assay: cells). Settings: Homo sapiens, C2BBe1.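 Note: growth inhibition of C2BBe1 cells, read out through a viability assay.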
Assay type: functional, cell-based, Homo sapiens
Description: SANGER: Inhibition of human C2BBe1 cell growth in a cell viability assay.

Compound | IC50
CC(C)c1ccccc1Cc1cc(C(=O)Nc2ccc(S(=O)(=O)c3ccccc3C(C)(C)C)cc2)c(O)c(O)c1O | 0.000266 mM
CN(C)C(=N)NC(=N)N [METFORMIN] | 11.8 mM

What follows are compounds tested on EW-3 (assay: cells). Settings: Homo sapiens, EW-3.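 Note: cell viability assay read-out, IC50 reflects inhibition of growth of the EW-3 cells.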
Assay type: functional, cell-based, Homo sapiens
Description: SANGER: Inhibition of human EW-3 cell growth in a cell viability assay.

Compound | IC50
CN(C)C(=N)NC(=N)N [METFORMIN] | 12.2 mM

Each compound was assayed on MN-60 (assay: cells). Settings: Homo sapiens, MN-60.
Assay type: functional, cell-based, Homo sapiens
Description: SANGER: Inhibition of human MN-60 cell growth in a cell viability assay.

Compound | IC50
CN(C)C(=N)NC(=N)N [METFORMIN] | > 20 mM

Each compound was assayed on KARPAS-45 (assay: cells). Settings: Homo sapiens, KARPAS-45.
Assay type: functional, cell-based, Homo sapiens
Description: SANGER: Inhibition of human KARPAS-45 cell growth in a cell viability assay.

Compound | IC50
CN(C)C(=N)NC(=N)N [METFORMIN] | 3.05 mM

These compounds were tested on SK-N-DZ (assay: cells). Settings: Homo sapiens, SK-N-DZ.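 Note: growth inhibition of the cancer cell line, read out through a viability assay.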
Assay type: functional, cell-based, Homo sapiens
Description: SANGER: Inhibition of human SK-N-DZ cell growth in a cell viability assay.

Compound | IC50
CC(C)c1ccccc1Cc1cc(C(=O)Nc2ccc(S(=O)(=O)c3ccccc3C(C)(C)C)cc2)c(O)c(O)c1O | 0.000207 mM
CN(C)C(=N)NC(=N)N [METFORMIN] | 13.3 mM

These compounds were tested on LB831-BLC (assay: cells). Settings: Homo sapiens, LB831-BLC.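 Note: growth inhibition of LB831-BLC cells, read out with a cell viability assay.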
Assay type: functional, cell-based, Homo sapiens
Description: SANGER: Inhibition of human LB831-BLC cell growth in a cell viability assay.

Compound | IC50
CC(C)c1ccccc1Cc1cc(C(=O)Nc2ccc(S(=O)(=O)c3ccccc3C(C)(C)C)cc2)c(O)c(O)c1O | 0.745 µM
CN(C)C(=N)NC(=N)N [METFORMIN] | > 20000 µM

These compounds were tested on KNS-42 (assay: cells). Settings: Homo sapiens, KNS-42.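 Note: growth inhibition of KNS-42 cells, read out with a cell viability assay.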
Assay type: functional, cell-based, Homo sapiens
Description: SANGER: Inhibition of human KNS-42 cell growth in a cell viability assay.

IC50 | Compound
2540 nM | CC(C)c1ccccc1Cc1cc(C(=O)Nc2ccc(S(=O)(=O)c3ccccc3C(C)(C)C)cc2)c(O)c(O)c1O

What follows are compounds tested on NCI-H526 (assay: cells). Settings: Homo sapiens, NCI-H526.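 Note: growth inhibition of the human NCI-H526 cell line, measured by a cell viability assay.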
Assay type: functional, cell-based, Homo sapiens
Description: SANGER: Inhibition of human NCI-H526 cell growth in a cell viability assay.

Compound | IC50
CN(C)C(=N)NC(=N)N [METFORMIN] | 16.1 mM

These compounds were tested on HCE-T (assay: cells). Settings: Homo sapiens, HCE-T.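 Note: cell viability assay read-out, reporting inhibition of HCE-T cell growth.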
Assay type: functional, cell-based, Homo sapiens
Description: SANGER: Inhibition of human HCE-T cell growth in a cell viability assay.

IC50 | Compound
231 nM | CC(C)c1ccccc1Cc1cc(C(=O)Nc2ccc(S(=O)(=O)c3ccccc3C(C)(C)C)cc2)c(O)c(O)c1O

What follows are compounds tested on D-502MG (assay: cells). Settings: Homo sapiens, D-502MG.
Assay type: functional, cell-based, Homo sapiens
Description: SANGER: Inhibition of human D-502MG cell growth in a cell viability assay.

Compound | IC50
CC(C)c1ccccc1Cc1cc(C(=O)Nc2ccc(S(=O)(=O)c3ccccc3C(C)(C)C)cc2)c(O)c(O)c1O | 4.92 µM
CN(C)C(=N)NC(=N)N [METFORMIN] | > 20000 µM

What follows are compounds tested on DOHH-2 (assay: cells). Settings: Homo sapiens, DOHH-2.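 Note: growth inhibition of human DOHH-2 cells, read out with a cell viability assay.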
Assay type: functional, cell-based, Homo sapiens
Description: SANGER: Inhibition of human DOHH-2 cell growth in a cell viability assay.

Compound | IC50
CN(C)C(=N)NC(=N)N [METFORMIN] | 7.64 mM

What follows are compounds tested on LAMA-84 (assay: cells). Settings: Homo sapiens, LAMA-84.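 Note: growth inhibition of LAMA-84 cells, read out with a cell viability assay.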
Assay type: functional, cell-based, Homo sapiens
Description: SANGER: Inhibition of human LAMA-84 cell growth in a cell viability assay.

Compound | IC50
CN(C)C(=N)NC(=N)N [METFORMIN] | > 20 mM

The compounds below were run on LB771-HNC (assay: cells). Settings: Homo sapiens, LB771-HNC.
Assay type: functional, cell-based, Homo sapiens
Description: SANGER: Inhibition of human LB771-HNC cell growth in a cell viability assay.

Compound | IC50
CC(C)c1ccccc1Cc1cc(C(=O)Nc2ccc(S(=O)(=O)c3ccccc3C(C)(C)C)cc2)c(O)c(O)c1O | 0.166 µM
CN(C)C(=N)NC(=N)N [METFORMIN] | > 20000 µM

What follows are compounds tested on CAS-1 (assay: cells). Settings: Homo sapiens, CAS-1.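 Note: growth inhibition of CAS-1 cells, measured with a cell viability assay.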
Assay type: functional, cell-based, Homo sapiens
Description: SANGER: Inhibition of human CAS-1 cell growth in a cell viability assay.

IC50 | Compound
2780 nM | CC(C)c1ccccc1Cc1cc(C(=O)Nc2ccc(S(=O)(=O)c3ccccc3C(C)(C)C)cc2)c(O)c(O)c1O

These compounds were tested on P30-OHK (assay: cells). Settings: Homo sapiens, P30-OHK.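 Note: growth inhibition of the P30-OHK cell line, read out with a cell viability assay.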
Assay type: functional, cell-based, Homo sapiens
Description: SANGER: Inhibition of human P30-OHK cell growth in a cell viability assay.

Compound | IC50
CN(C)C(=N)NC(=N)N [METFORMIN] | 2.76 mM

The compounds below were run on HH (assay: cells). Settings: Homo sapiens, HH.
Assay type: functional, cell-based, Homo sapiens
Description: SANGER: Inhibition of human HH cell growth in a cell viability assay.

Compound | IC50
CN(C)C(=N)NC(=N)N [METFORMIN] | 9.63 mM

What follows are compounds tested on K5 (assay: cells). Settings: Homo sapiens, K5.
Assay type: functional, cell-based, Homo sapiens
Description: SANGER: Inhibition of human K5 cell growth in a cell viability assay.

Compound | IC50
CC(C)c1ccccc1Cc1cc(C(=O)Nc2ccc(S(=O)(=O)c3ccccc3C(C)(C)C)cc2)c(O)c(O)c1O | 1.77 µM
CN(C)C(=N)NC(=N)N [METFORMIN] | > 20000 µM

Each compound was assayed on JVM-3 (assay: cells). Settings: Homo sapiens, JVM-3.
Assay type: functional, cell-based, Homo sapiens
Description: SANGER: Inhibition of human JVM-3 cell growth in a cell viability assay.

Compound | IC50
CN(C)C(=N)NC(=N)N [METFORMIN] | > 20 mM

What follows are compounds tested on ALL-PO (assay: cells). Settings: Homo sapiens, ALL-PO.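 Note: growth inhibition of ALL-PO cells, read out by a cell viability assay.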
Assay type: functional, cell-based, Homo sapiens
Description: SANGER: Inhibition of human ALL-PO cell growth in a cell viability assay.

Compound | IC50
CN(C)C(=N)NC(=N)N [METFORMIN] | 2.9 mM

These compounds were tested on LS-411N (assay: cells). Settings: Homo sapiens, LS-411N.
Assay type: functional, cell-based, Homo sapiens

Compound | IC50
CC(C)c1ccccc1Cc1cc(C(=O)Nc2ccc(S(=O)(=O)c3ccccc3C(C)(C)C)cc2)c(O)c(O)c1O | 0.00124 mM
CN(C)C(=N)NC(=N)N [METFORMIN] | 10.4 mM

These compounds were tested on ATN-1 (assay: cells). Settings: Homo sapiens, ATN-1.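 Note: growth inhibition of human ATN-1 cells, read out with a cell viability assay.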
Assay type: functional, cell-based, Homo sapiens
Description: SANGER: Inhibition of human ATN-1 cell growth in a cell viability assay.

Compound | IC50
CN(C)C(=N)NC(=N)N [METFORMIN] | 8.65 mM

The compounds below were run on NB17 (assay: cells). Settings: Homo sapiens, NB17.
Assay type: functional, cell-based, Homo sapiens
Description: SANGER: Inhibition of human NB17 cell growth in a cell viability assay.

Compound | IC50
CC(C)c1ccccc1Cc1cc(C(=O)Nc2ccc(S(=O)(=O)c3ccccc3C(C)(C)C)cc2)c(O)c(O)c1O | 1.06 µM
CN(C)C(=N)NC(=N)N [METFORMIN] | > 20000 µM
